Values of other authors in publication PMC2362650, “Phase I and pharmacokinetic study of the topoisomerase II catalytic inhibitor fostriecin” (British Journal of Cancer, 1999).

Experiments:
[1] = parameters: method as in Clinical Brochure Fostriecin, 1991; conditions: mouse; 5-day schedule; ref Clinical Brochure Fostriecin, 1991; cited from earlier work
murine leukaemia P388 = tested on: murine leukaemia P388; parameters: method as in Leopold et al, 1984; conditions: ref Leopold et al, 1984; cited from earlier work
GLC4/VM20x = tested on: GLC4/VM20x; parameters: method as in Withoff et al, 1996; conditions: ref Withoff et al, 1996; cited from earlier work

SMILES: C[C@@](O)(/C=C/[C@H]1CC=CC(=O)O1)[C@@H](C[C@@H](O)\C=C/C=C\C=C\CO)OP(=O)(O)O [fostriecin]
- LD10 [1]: 120 mg m-2 day-1
- activity against P388 (murine leukaemia P388): active
- sensitivity of GLC4/VM20x relative to GLC4 (GLC4/VM20x): 1.7 times
